Patent US10597364B2, “Anthelmintic compounds, compositions and method of using thereof” (priority 2015, dated 2020)
Like-named read-outs stand apart in the source and are kept apart here.

Experiments:
[1] = test system: microfilaria of Dirofilaria immitis; test: Method C: microfilaria of Dirofilaria immitis motility screen; type: cell-based; details: read-out: inhibition of the microfilaria's motility
[2] = human, Caco-2, pH 6.5
Procedure: Permeability of Compounds.
An in vitro model utilizing Caco-2/TC7 cells is employed to assess the permeability characteristics of new chemical entities (NCEs).
The permeability studies were performed under standard conditions in the apical to basolateral (A→B) direction with a pH gradient and a BSA gradient (standard apical medium (0.5% BSA at pH 6.5)/standard basal medium (5% BSA at pH 7.4)); conditions that most closely reflect the conditions in the in vivo situation. Samples were deproteinized by the addition of 400 μl acetonitrile to 200 μl sample, followed by a 20-minute centrifugation at 1730 g. Compound solubilisation: compound solutions at final concentrations of 20 μM were prepared following dilutions of stock solutions (starting from 10 mM in DMSO) in HBSS. Final concentration of DMSO was adjusted to 1%. Analytical conditions: Supernatants recovered following centrifugation were analysed by LC/MS/MS using a reverse phase column and the mobile phases delivered at 0.3 ml/minute in a gradient: water (A) and acetonitrile (B) (each with 0.1% formic acid).
Every experiment (n) represents the mean of 3 filters per experiment.

Haemonchus contortus = test: Method A: Haemonchus contortus L1 larval development/motility screen in microtitre plate; type: cell-based; details: 96 h, read-out: motility inhibition

Row | Compound | Papp A→B at 20 μM [2] | inhibition at 5 µM (Haemonchus contortus) | inhibition at 10 µM ([1]; 24 h) | other results
1 | CCCCC(=O)N1CCN(c2ccnc(O[C@H]3CC[C@H](Nc4ccc([N+](=O)[O-])c(C(F)(F)F)c4)CC3)c2)CC1 [Compound 17] | 3.99 ×10⁻⁶ cm/s | ≥ 90% |  | inhibition at 5 ppm ([1]; 24 h): ≥ 90%
2 | O=C(CC1CCC1)N1CCN(c2cc(O[C@H]3CC[C@H](Nc4ccc([N+](=O)[O-])c(C(F)(F)F)c4)CC3)ccn2)CC1 [Compound 8] | 4.01 ×10⁻⁶ cm/s | ≥ 90% | ≥ 90% | 
3 | O=C(Cc1ccc(F)cc1)N1CCN(c2ccnc(O[C@H]3CC[C@H](Nc4ccc([N+](=O)[O-])c(C(F)(F)F)c4)CC3)c2)CC1 [Compound 23] | 1.09 ×10⁻⁶ cm/s | ≥ 90% | ≥ 90% | 
4 | CC(C)(C)OC(=O)N1CCN(c2cncc(O[C@H]3CC[C@H](Nc4ccc([N+](=O)[O-])c(C(F)(F)F)c4)CC3)c2)CC1 [Compound 15] | 2.07 ×10⁻⁶ cm/s | ≥ 90% |  | 
5 | O=C(CCC(F)(F)F)N1CCN(c2cc(O[C@H]3CC[C@H](Nc4ccc([N+](=O)[O-])c(C(F)(F)F)c4)CC3)ccn2)CC1 [Compound 24] | 4.46 ×10⁻⁶ cm/s | ≥ 90% | ≥ 90% | 
6 | O=[N+]([O-])c1ccc(N[C@H]2CC[C@H](Oc3cncc(N4CCN(CC5CCCC5)CC4)c3)CC2)cc1C(F)(F)F [Compound 27] | 2.33 ×10⁻⁶ cm/s | ≥ 90% | ≥ 90% | 
7 | CC(C)(C)CC(=O)N1CCN(c2cncc(O[C@H]3CC[C@H](Nc4ccc([N+](=O)[O-])c(C(F)(F)F)c4)CC3)c2)CC1 [Compound 35] | 4.99 ×10⁻⁶ cm/s | ≥ 90% |  | inhibition at 5 ppm ([1]; 24 h): ≥ 90%
8 | O=C(Oc1ccc(F)cc1)N1CCN(c2cncc(O[C@H]3CC[C@H](Nc4ccc([N+](=O)[O-])c(C(F)(F)F)c4)CC3)c2)CC1 [Compound 11] | 0.55 ×10⁻⁶ cm/s | ≥ 90% |  | 
9 | O=C(OC1CCCC1)N1CCN(c2ccnc(O[C@H]3CC[C@H](Nc4ccc([N+](=O)[O-])c(C(F)(F)F)c4)CC3)c2)CC1 [Compound 9, cyclopentyl 4-[2-[(4-[[4-nitro-3-(trifluoromethyl)phenyl]amino]cyclohexyl)oxy]pyridin-4-yl]piperazine-1-carboxylate] | 1.08 ×10⁻⁶ cm/s | ≥ 90% |  | 
10 | O=C(CC1CCCC1)N1CCN(c2cc(O[C@H]3CC[C@H](Nc4ccc([N+](=O)[O-])c(C(F)(F)F)c4)CC3)ccn2)CC1 [Compound 3, 2-Cyclopentyl-1-[4-(4-[[4-[[4-nitro-3-(trifluoromethyl)phenyl]amino]cyclohexyl]oxy]pyridin-2-yl)piperazin-1-yl]ethan-1-one] | 2.64 ×10⁻⁶ cm/s |  | ≥ 90% | 
11 | CCCOC(=O)N1CCN(c2ccnc(O[C@H]3CC[C@H](Nc4ccc([N+](=O)[O-])c(C(F)(F)F)c4)CC3)c2)CC1 [Compound 36] | 2.41 ×10⁻⁶ cm/s | ≥ 90% | ≥ 90% | 
12 | CCCN1CCN(c2cc(O[C@H]3CC[C@H](Nc4ccc([N+](=O)[O-])c(C(F)(F)F)c4)CC3)ccn2)CC1 [Compound 78] |  | ≥ 90% |  | inhibition at 10 µM ([1]; 10 μM, 24 hours): ≥ 90%
13 | O=C(CC(F)(F)F)N1CCN(c2cc(O[C@H]3CC[C@H](Nc4ccc([N+](=O)[O-])c(C(F)(F)F)c4)CC3)ccn2)CC1 [Compound 71] |  | ≥ 90% | ≥ 90% | 
14 | O=C(CC1CC1)N1CCN(c2cc(O[C@H]3CC[C@H](Nc4ccc([N+](=O)[O-])c(C(F)(F)F)c4)CC3)ccn2)CC1 [Compound 28] |  | ≥ 90% | ≥ 90% | 
15 | O=[N+]([O-])c1ccc(N[C@H]2CC[C@H](Oc3cc(N4CCN(C(=S)Nc5ccc(F)cc5)CC4)ccn3)CC2)cc1C(F)(F)F [Compound 89] |  | ≥ 90% |  | inhibition at 5 ppm ([1]; 24 h): ≥ 90%
16 | CCCCC(=O)N1CCN(c2cc(O[C@H]3CC[C@H](Nc4ccc([N+](=O)[O-])c(C(F)(F)F)c4)CC3)ccn2)CC1 [Compound 10] | 5.81 ×10⁻⁶ cm/s | ≥ 90% |  | 
17 | N#Cc1ccc(N[C@H]2CC[C@H](Oc3cc(N4CCN(C(=O)CC5CCCC5)CC4)ccn3)CC2)cc1C(F)(F)F [Compound 183] |  | ≥ 90% | ≥ 90% | 
18 | O=C(CC1CCCC1)N1CCN(c2cc(O[C@H]3CC[C@H](Nc4ccc(S(=O)(=O)C(F)(F)F)cc4)CC3)ccn2)CC1 [Compound 188] |  | ≥ 90% | ≥ 90% | 
19 | O=[N+]([O-])c1ccc(N[C@H]2CC[C@H](Oc3ccc(N4CCN(c5ccc6cc(C(F)(F)F)ccc6n5)CC4)nc3)CC2)cc1C(F)(F)F [Compound 102] | 0.01 ×10⁻⁶ cm/s |  |  | 
20 | CCCC(=O)N1CCN(c2cncc(O[C@H]3CC[C@H](Nc4ccc([N+](=O)[O-])c(C(F)(F)F)c4)CC3)c2)CC1 [Compound 31] | 10.7 ×10⁻⁶ cm/s | ≥ 90% |  | 
21 | CC(C)(C)NC(=O)N1CCN(c2ccnc(O[C@H]3CC[C@H](Nc4ccc([N+](=O)[O-])c(C(F)(F)F)c4)CC3)c2)CC1 [Compound 65, N-tert-butyl-4-[2-[(4-[[4-nitro-3-(trifluoromethyl)phenyl]amino]cyclohexyl)oxy]pyridin-4-yl]piper-azine-1-carboxamide] |  | ≥ 90% |  | inhibition at 5 ppm ([1]; 24 h): ≥ 90%
22 | O=C(NC1CCCC1)N1CCN(c2ccnc(O[C@H]3CC[C@H](Nc4ccc([N+](=O)[O-])c(C(F)(F)F)c4)CC3)c2)CC1 [Compound 69] |  | ≥ 90% | ≥ 90% | 
23 | O=[N+]([O-])c1ccc(N[C@H]2CC[C@H](Oc3cc(N4CCN(C(=S)NC5CCCC5)CC4)ccn3)CC2)cc1C(F)(F)F [Compound 81] |  | ≥ 90% |  | inhibition at 1 ppm ([1]; 24 h): ≥ 90%; inhibition at 5 ppm ([1]; 24 h): ≥ 90%
24 | CCCNC(=O)N1CCN(c2ccnc(O[C@H]3CC[C@H](Nc4ccc([N+](=O)[O-])c(C(F)(F)F)c4)CC3)c2)CC1 [Compound 85] |  | ≥ 90% |  | inhibition at 5 ppm ([1]; 5 ppm, 24 hours): ≥ 90%
25 | O=[N+]([O-])c1ccc(N[C@H]2CC[C@H](Oc3cncc(N4CCN(Cc5ccc(F)cc5)CC4)c3)CC2)cc1C(F)(F)F [Compound 4, 4-nitro-N-[4-[(5-[4-[(4-fluorophenyl)methyl]piperazin-1-yl]pyridin-3-yl)oxy]cyclohexyl]-3-(trifluoromethyl)aniline] | 1.84 ×10⁻⁶ cm/s |  | ≥ 90% | inhibition at 1 µM ([1]; 24 h): ≥ 90%
26 | CCCCN1CCN(c2cncc(O[C@H]3CC[C@H](Nc4ccc([N+](=O)[O-])c(C(F)(F)F)c4)CC3)c2)CC1 [Compound 53] |  | ≥ 90% | ≥ 90% | 
27 | CCCNC(=O)N1CCN(c2cncc(O[C@H]3CC[C@H](Nc4ccc([N+](=O)[O-])c(C(F)(F)F)c4)CC3)c2)CC1 [Compound 95] |  | ≥ 90% |  | inhibition at 10 µM ([1]; 10 μM, 24 hours): ≥ 90%
28 | CCCOC(=O)N1CCN(c2cc(O[C@H]3CC[C@H](Nc4ccc([N+](=O)[O-])c(C(F)(F)F)c4)CC3)ccn2)CC1 [Compound 26] |  | ≥ 90% | ≥ 90% | 
29 | O=C(CC1CCCC1)N1CCN(c2ccnc(O[C@H]3CC[C@H](Nc4ccc([N+](=O)[O-])c(C(F)(F)F)c4)CC3)c2)CC1 [Compound 5, 2-cyclopentyl-1-(4-(2-(4-(4-nitro-3-(trifluoromethyl)phenylamino)cyclohexyloxy)pyridin-4-yl)piperazin-1-yl)ethanone] |  | ≥ 90% |  | inhibition at 5 ppm ([1]; 24 h): ≥ 90%
30 | CCOC(=O)N1CCN(c2cncc(O[C@H]3CC[C@H](Nc4ccc([N+](=O)[O-])c(C(F)(F)F)c4)CC3)c2)CC1 [Compound 38] |  | ≥ 90% |  | inhibition at 5 ppm ([1]; 24 h): ≥ 90%
